According to patent US20260248833A1, “PYRIMIDINE NUCLEOSIDE TREATMENTS” (The Children`s Medical Center Corporation, priority 2022, published 2026):
Entries after “also recorded” stand apart in the source; their conditions may differ.

How the values were obtained:
[1] = test system: T-free super-telomerase expressing cells (293T TERC-null); assay: Slot blot of GGAAAG repeat content in cellular DNA; assay type: cell-based, human; details: 5FU (10 μM) or HU (500 μM)
Procedure: Slot blotting: slot blotting was performed as described with minor modifications. Briefly, DNA concentration was normalized to 20 ng/μl using a nanodrop spectrophotometer. 3.3 μl of DNA was added to 16.5 μl of denaturation solution (0.5 M NaOH, 1.5 M NaCl) and heated to 55° C. for 30 minutes. 495 μl of neutralization solution (0.5 M Tris-HCl, 1.5 M NaCl) was added to denatured DNA and 156 μl of this solution was added in triplicate to different slots on a Bio-Dot SF Apparatus (Bio-Rad) and blotted onto Hybond N+ Membrane (Cytivia). Membrane preparation and washing was performed as described. For samples with paired GGTTAG and GGAAAG slot blots, the above recipe was doubled, and 156 μl was loaded onto parallel membranes in triplicate on each membrane. After blotting, membranes were hybridized and detected as described above for TRF Southern blots using the probe indicated in the figure. Blots were analyzed using ImageJ. Statistical analysis was performed using Graphpad prism V9.1.0.

[2] = test system: super-telomerase cells (TERC-null 293T cells transfected with TERT and TERC); assay: TRF Southern blot telomere synthesis in super-telomerase cells; assay type: cell-based, human; details: treatment for 30 hours
Procedure: (§1) Terminal Restriction Fragment Length Analysis: genomic DNA was isolated from cells using the Invitrogen Purelink Genomic DNA mini kit (Invitrogen). 1-3 μg of gDNA was digested with RsaI and HinfI for 2-3 hrs at 37° C. and loaded onto a 0.6% agarose gel followed by Southern blotting using the Telotaggg Telomere Length Assay Kit (Roche). Quantification was performed using the WALTER webtool.
dT supplementation increases levels of dTTP and can reduce dCTP levels, leading to replication stress at high doses. Because replication stress signaling has been implicated in telomerase biology we asked whether replication stress induction explained the telomere length increases seen with dT treatment. We first tested whether telomere elongation is a universal response to replication stress-inducing compounds. […] However, cytotoxicity limited our ability to apply higher doses of replication stress-inducing compounds for time periods long enough to study telomere length changes. […] Using this system, we next asked how high-dose treatment with replication stress-inducing agents such as aphidicolin, hydroxyurea, and the TYMS inhibitor 5FU influence telomere synthesis compared to dT.

[3] = test system: pCHK1-S345 and pRPA32-S33; assay: Immunoblot of replication stress signaling in super-telomerase cells; assay type: cell-based, human; details: highest doses, 30 hours
[4] = test system: 293T cells; assay: Terminal restriction fragment (TRF) Southern blot telomere length, 293T cells; assay type: cell-based, human
Procedure: (§2) Cell culture: K562 cells (ATCC) were grown in RPMI1 1640 (Gibco) media supplemented with 10% fetal bovine serum. 293T cells (ATCC) were grown in DMEM (Gibco) supplemented with 10% fetal bovine serum, and were subcultured using 0.05% trypsin (Gibco). iPSCs were derived, characterized and cultured as previously described. iPSCs were grown in Essential 8 Media (Life Technologies) supplemented with the ROCK inhibitor Y271632 (Stem Cell Technologies) at 10 μM on plates coated with hES qualitied Matrigel matrix (Corning) and were subcultured using Accutase (Stem Cell Technologies).
as §1

[5] = test system: K562 cells; assay: Terminal restriction fragment (TRF) Southern blot telomere length, K562 cells; assay type: cell-based, human; details: K562 cells
Procedure: as §2, §1

[6] = co-administration with dT; cited from earlier work
[7] = test system: telomere length; assay: Telomere length with cytidine and uridine (FIG. 23); assay type: cell-based
[8] = at pH of about 7; cited from earlier work
[9] = 10 days, doses up to those maximally tolerated
[10] = 8 days, doses up to those maximally tolerated
[11] = 100 μM of the indicated deoxynucleoside(s) for 9 days
[12] = 100 μM of the indicated deoxynucleoside(s) for 8 days
[13] = baseline 16 μM dT, plus 100 μM additional dT or 1 mM dU, 10 days

O=c1[nH]cc(F)c(=O)[nH]1 [5FU, 5-fluorouracil, reference compound]
levels of GGAAAG repeats [1]: reduced levels of GGAAAG repeats; also recorded: inhibited T-free telomerase activity
telomere repeat synthesis / telomere elongation by telomerase [2]: ablated telomere elongation by telomerase; also recorded: completely inhibited telomere elongation; also recorded: ablated telomere lengthening in super-telomerase cells
replication stress signaling [3]: induced similar levels of replication stress signaling

O=C1NC(=NCc2cccs2)S/C1=C\c1ccc2ncccc2c1 [RO-3306, reference compound]
telomere length [4, 9]: No changes were found in telomere length
telomere length [5, 10]: No changes were found in telomere length

C[C@@]1(CO)[C@H](O)CC[C@@]2(C)[C@H]1CC[C@H]1C[C@@H]3C[C@@]12CC[C@]3(O)CO [aphidicolin, reference compound]
telomere length [4, 9]: telomere elongation after 10 days
telomere repeat synthesis / telomere elongation by telomerase [2]: drove detectable increases in telomere length, albeit to a lesser extent than dT
replication stress signaling [3]: induced similar levels of replication stress signaling

Nc1ccn([C@@H]2O[C@H](CO)[C@@H](O)[C@H]2O)c(=O)n1 [cytidine, 4-amino-1-[(2R,3R,4S,5R)-3,4-dihydroxy-5-(hydroxymethyl)oxolan-2-yl]pyrimidin-2 (1H)-one]
toxicity caused by dT [6]: reduce toxicity caused by dT
telomere length [7]: increase telomere length

Nc1ncnc2c1ncn2[C@H]1C[C@H](O)[C@@H](CO)O1 [dA, deoxyadenosine, reference compound]
telomere length [4, 11]: but not deoxyadenosine (dA) or deoxyguanosine (dG), rapidly and robustly increases telomere length
telomere length [5, 12]: but not deoxyadenosine (dA) or deoxyguanosine (dG), rapidly and robustly increases telomere length

Nc1ccn([C@H]2C[C@H](O)[C@@H](CO)O2)c(=O)n1 [dC, 4-azmino-1-[(2R,4S,5R)-4-hydroxy-5-(hydroxymethyl)oxolan-2-yl]pyrimidin-2 (1H)-one]
toxicity caused by dT [6]: reduce toxicity caused by dT; also recorded: reduces toxicity of dT and improves cell growth compared to dT alone
water solubility [8]: about 870 mg/mL

Nc1nc2c(ncn2[C@H]2C[C@H](O)[C@@H](CO)O2)c(=O)[nH]1 [dG, deoxyguanosine, reference compound]
telomere length [4, 11]: but not deoxyadenosine (dA) or deoxyguanosine (dG), rapidly and robustly increases telomere length
telomere length [5, 12]: but not deoxyadenosine (dA) or deoxyguanosine (dG), rapidly and robustly increases telomere length

O=c1ccn([C@H]2C[C@H](O)[C@@H](CO)O2)c(=O)[nH]1 [dU, 1-((2R,4S,5R)-4-Hydroxy-5-(hydroxymethyl)tetrahydrofuran-2-yl)pyrimidine-2,4 (1H,3H)-dione]
concentration giving telomere elongation to a degree similar to dT ([4]; 10× the dT concentration): 1 mM
telomere length with baseline of 16 μM dT ([4]; added dU, 10 days): increased telomere length
telomere lengthening in TYMS-knockout cells [4, 13]: no longer able to promote telomere lengthening
telomere length ([4]; dU 1 mM, 10 days (FIG. 9)): elongate telomeres to a degree similar to dT
telomere length ([4]; dU 1 mM, 10 days (FIG. 9), listed as Deoxyuridine): promotes telomere elongation
telomere length with baseline of 16 μM dT ([5]; added dU, 10 days): increased telomere length
telomere lengthening in TYMS-knockout cells [5, 13]: no longer able to promote telomere lengthening
water solubility [8]: about 5 mg/ml

Nc1nc2ncc(CNc3ccc(C(=O)N[C@@H](CCC(=O)O)C(=O)O)cc3)nc2c(=O)[nH]1 [folate, folic acid, reference compound]
telomere length ([4]; folate supplementation up to 1 mM, 10 days): did not yield telomere elongation
telomere length ([4]; folate supplementation up to 1 mM, 10 days, listed as folic acid): but not folic acid supplementation promotes telomere elongation

NC(=O)NO [hydroxyurea, reference compound]
levels of GGAAAG repeats [1]: reduced levels of GGAAAG repeats
telomere length [4, 9]: No changes were found in telomere length; also recorded: did not change telomere length after 10 days
telomere length [5, 10]: No changes were found in telomere length
telomere repeat synthesis / telomere elongation by telomerase [2]: ablated telomere elongation by telomerase
replication stress signaling [3]: induced similar levels of replication stress signaling

O=c1ccn([C@@H]2O[C@H](CO)[C@@H](O)[C@H]2O)c(=O)[nH]1 [uridine, 1-[(2R,3R,4S,5R)-3,4-Dihydroxy-5-(hydroxymethyl)oxolan-2-yl]pyrimidine-2,4 (1H,3H)-dione]
telomere length [7]: increase telomere length
